COc1ccccc1N1CCN(CC(O)COc2cccc3ccccc23)CC1 (stereo not given)
solubility (mole fraction)
Conditions	288.15 K	293.15 K	298.15 K	303.15 K	308.15 K	313.15 K	318.15 K	323.15 K	328.15 K
in DMSO	–	0.0283	0.0323	0.0367	0.0416	0.0468	0.0527	0.059	0.066
in ethanol	0.00142	0.00163	0.00189	0.00216	0.00244	0.00277	0.00314	0.00355	0.00397
in isopropanol	0.000714	0.000827	0.000959	0.00111	0.00127	0.00145	0.00165	0.00186	0.00213
in water	2.07e-06	2.69e-06	3.46e-06	4.43e-06	5.65e-06	7.05e-06	8.85e-06	1.09e-05	1.37e-05
